Source: patent US10260039B2, “Microgels and microtissues for use in tissue engineering” (Massachusetts Institute of Technology, priority 2011, dated 2019)

Tests used:
[1] = system: 3D engineered liver tissues; assay: hepatic function of 3D engineered liver tissues (albumin secretion); type: cell-based, human
Text: FIG. 10. A) Albumin secretion as a measure of hepatic phenotype, elevated in the presence of fibroblasts and RGDS peptide. B) Luminex bead measurements of human drug metabolism enzyme genes, showing upregulation of the genes in 3D as opposed to 2D, in various phases of drug metabolism.
More recently, it has been possible to extend the function of 3D engineered liver tissues even further, by addition of a micropatterning step pre-encapsulation (FIG. 11).

encapsulated tumor cells = assay: 3D proliferation of encapsulated tumor cells in microtissues (large-particle flow analyzer); type: cell-based
Text: FIG. 16. Microtissue proliferation modulated by (a) incorporated extracellular matrix molecules, or (b) culture in soluble growth factors.
FIG. 17. Differences in tumor cell responses to small molecules in 2D vs. 3D culture. (a) Comparison of proliferation rates on 2D-microplate and 3D-microtissue formats relative to untreated controls. (b) Growth curve over time of tumor cells in 2D measured by microplate fluorescence, and (c) Growth curve over time of tumor cells in 3D measured by gel dissolution and DNA quantitation.
The in vitro 3D tumor model platform combines the split-injection encapsulation chip described in detail above with a large-particle flow analyzer and sorter (COPAS Biosort by Union Biometrica). Cells are first encapsulated within microtissues (˜5000/min) that can contain tumor cells, stromal cells, and various entrapped ECM. These microtissues are then further enriched using the flow sorter that measures the fluorescence intensity each microtissue, correlating with the density of zs-green tumor cells in each microtissue. (FIG. 15a), and can sort the microtissues (˜25 selected/min) into low, medium, and high homotypic cell density bins (FIG. 15b). […] Selected populations of microtissues are then exposed to stimuli in culture such as growth factors and inhibitors, and their proliferation over days is detected on a population level (FIG. 15b).

RGDS: adhesive peptide (SEQ ID NO: 1), acrylate-PEG-RGDS incorporated in hydrogel; ligates α5β1 integrin (not fully specified; acrylate-PEG conjugate in hydrogel)
hepatic functions ([1]; 3D culture, ligation of α5β1 integrin via RGDS (FIG. 10A)): further improved hepatic functions | albumin secretion as a measure of hepatic phenotype ([1]; in the presence of fibroblasts and RGDS peptide (FIG. 10A)): elevated

TGF-β
slowing of 3D proliferation of encapsulated tumor cells (encapsulated tumor cells; exogenous growth factor in culture, 3D microtissues (FIG. 16)): ~80%

fibronectin
3D proliferation (growth) of encapsulated tumor cells (encapsulated tumor cells; extracellular matrix protein incorporated in microtissues (FIG. 16)): promoted growth
